Read-outs that look alike come from different tables or passages of the source.
Columns and labels:
CYP2B6 = conditions: cited from earlier work
CYP2E1 = conditions: cited from earlier work
human CYPs = conditions: cited from earlier work
CYP2C8 = conditions: cited from earlier work
[1] = mice infected with C. albicans and C. glabrata; cited from earlier work
CYP1A2 = conditions: cited from earlier work
[2] = system: phosphatidylinositol glycan anchor biosynthesis class W (PIGW); set-up: method as in PMID 33105672, PMID 34626339; conditions: cited from earlier work
CYP2C19 = conditions: cited from earlier work
CYP2A6 = conditions: cited from earlier work
[3] = system: recombinant human CYP (rCYP) enzymes; conditions: cited from earlier work
[4] = Plasma pharmacokinetics of MGX and FMGX (noncompartmental analysis), phase 1 fixed-sequence DDI study with itraconazole or rifampin; assay type: in vivo, human; conditions: for Vd: read-out: MGX Vz; for Tmax: median (range)
Method: In cohort 1, MGX plasma samples were collected at specified time points daily on days 1–4, once every 2 days on days 6–14, daily for 3 days from days 18 to 20, once every 2 days from days 21 to 29, and then on day 31, while itraconazole samples were collected at specified time points on days 19, 25, and 31. […] PK parameters were calculated using noncompartmental analysis from the plasma concentration-time data for MGX and FMGX. Primary PK parameters were maximum observed plasma concentration (Cmax), AUC from time 0 to infinity (AUC0-inf), and AUC up to time t (AUC0-t, where t was the last time point with concentrations above the lower limit of quantitation). […] Secondary PK parameters were time to attain Cmax (Tmax), AUC from time 0 to 23 hours (AUC0-23), terminal elimination half-life after the last dosing on the day (t1/2), clearance (CL), volume of distribution at terminal phase (Vz), and terminal phase rate constant after the last dosing on the day (λz).

CYP2C9 = conditions: cited from earlier work
CYP3A4 = conditions: cited from earlier work
CYP2D6 = conditions: cited from earlier work

In the case of Nc1ncccc1-c1cc(Cc2ccc(COc3ccccn3)cc2)no1 [MGX, manogepix], the “Reversible inhibition of CYP2B6” value (CYP2B6) is given as “observed”, the “Time-dependent inhibition of CYP2B6” value (CYP2B6) is given as “weak time-dependent inhibition” and the “Time-dependent inhibition of CYP2E1” value (CYP2E1) is given as “no time-dependent inhibition”. For the same compound, the “Reversible inhibition, other CYP isoforms” value (human CYPs) was “Weak or no inhibition”, the “Reversible inhibition of CYP2C8” value (CYP2C8) was “observed” and the “Time-dependent inhibition of CYP2C8” value (CYP2C8) was “no time-dependent inhibition”. For the same compound, the “Exposure (AUC) and half-life of MGX after pre-administration of 1-aminobenzotriazole” value [1] was “increase”, the “Reversible inhibition of CYP1A2” value (CYP1A2) was “observed” and the “Time-dependent inhibition of CYP1A2” value (CYP1A2) was “no time-dependent inhibition”. The “Inhibition of PIGW, closest mammalian ortholog of GWT1” value [2] was “not inhibited”, the “Reversible inhibition of CYP2C19” value (CYP2C19) was “observed” and the “Time-dependent inhibition of CYP2C19” value (CYP2C19) was “no time-dependent inhibition”. For the same compound, the “Time-dependent inhibition of CYP2A6” value (CYP2A6) was “no time-dependent inhibition”, the “Enzymes involved in formation of MGX-derived metabolites” value [3] was “multiple recombinant human CYP (rCYP) enzymes were involved” and the “MGX Vz” value ([4]; FMGX only 1000 mg BID IV, D1, Cohort 2, n = 17, geometric mean (geometric %CV)) was 190 (40.8) L. It also gave an AUC(0-inf) ([4]; human, in vivo, FMGX 500 mg BID IV D18 + ITR 200 mg QD PO D15-30, Cohort 1, n = 16, geometric mean (geometric %CV), read-out: MGX AUC(0-inf)) of 458 µg·h/mL, an AUC(0-t) ([4]; human, in vivo, FMGX 500 mg BID IV D18 + ITR 200 mg QD PO D15-30, Cohort 1, n = 16, geometric mean (geometric %CV), read-out: MGX AUC(0-t)) of 421 µg·h/mL and a Cmax ([4]; human, in vivo, FMGX 500 mg BID IV D18 + ITR 200 mg QD PO D15-30, Cohort 1, n = 16, geometric mean (geometric %CV), read-out: MGX Cmax) of 7060 ng/mL. The Vd ([4]; human, in vivo, FMGX 500 mg BID IV D18 + ITR 200 mg QD PO D15-30, Cohort 1, n = 16, geometric mean (geometric %CV)) was 195 L, the AUC(0-inf) ([4]; human, in vivo, FMGX 500 mg BID IV D18 + ITR 200 mg QD PO D15–30, Cohort 1, n = 16, read-out: MGX AUC(0-inf), least squares geometric mean) was 458 µg·h/mL and the AUC(0-t) ([4]; human, in vivo, FMGX 500 mg BID IV D18 + ITR 200 mg QD PO D15–30, Cohort 1, n = 16, read-out: MGX AUC(0-t), least squares geometric mean) was 421 µg·h/mL. The Cmax ([4]; human, in vivo, FMGX 500 mg BID IV D18 + ITR 200 mg QD PO D15–30, Cohort 1, n = 16, read-out: MGX Cmax, least squares geometric mean) was 7060 ng/mL, the AUC(0-inf) ([4]; human, in vivo, FMGX 1,000 mg BID IV D24 + RIF 600 mg QD PO D15–33, Cohort 2, n = 17, geometric mean (geometric %CV), read-out: MGX AUC(0-inf)) was 450 µg·h/mL and the AUC(0-t) ([4]; human, in vivo, FMGX 1,000 mg BID IV D24 + RIF 600 mg QD PO D15–33, Cohort 2, n = 17, geometric mean (geometric %CV), read-out: MGX AUC(0-t)) was 436 µg·h/mL. For the same compound, the Cmax ([4]; human, in vivo, FMGX 1,000 mg BID IV D24 + RIF 600 mg QD PO D15–33, Cohort 2, n = 17, geometric mean (geometric %CV), read-out: MGX Cmax) was 12100 ng/mL, the Vd ([4]; human, in vivo, FMGX 1,000 mg BID IV D24 + RIF 600 mg QD PO D15–33, Cohort 2, n = 17, geometric mean (geometric %CV)) was 205 L and the AUC(0-inf) ([4]; human, in vivo, FMGX 1,000 mg BID IV D24 + RIF 600 mg QD PO D15–33, Cohort 2, n = 17, read-out: MGX AUC(0-inf), least squares geometric mean) was 450 µg·h/mL. The AUC(0-t) ([4]; human, in vivo, FMGX 1,000 mg BID IV D24 + RIF 600 mg QD PO D15–33, Cohort 2, n = 17, read-out: MGX AUC(0-t), least squares geometric mean) was 436 µg·h/mL, the Cmax ([4]; human, in vivo, FMGX 1,000 mg BID IV D24 + RIF 600 mg QD PO D15–33, Cohort 2, n = 17, read-out: MGX Cmax, least squares geometric mean) was 12100 ng/mL and the half-life ([4]; human, in vivo, Terminal elimination half-life for MGX) was ~78 h. It also gave an AUC(0-inf) ([4]; human, in vivo, iv, 500 mg, FMGX only 500 mg BID IV, D1, Cohort 1, n = 16, geometric mean (geometric %CV), read-out: MGX AUC(0-inf)) of 460 µg·h/mL, an AUC(0-t) ([4]; human, in vivo, iv, 500 mg, FMGX only 500 mg BID IV, D1, Cohort 1, n = 16, geometric mean (geometric %CV), read-out: MGX AUC(0-t)) of 429 µg·h/mL and a Cmax ([4]; human, in vivo, iv, 500 mg, FMGX only 500 mg BID IV, D1, Cohort 1, n = 16, geometric mean (geometric %CV), read-out: MGX Cmax) of 6940 ng/mL. The Vd ([4]; human, in vivo, iv, 500 mg, FMGX only 500 mg BID IV, D1, Cohort 1, n = 16, geometric mean (geometric %CV)) was 185 L, the AUC(0-inf) ([4]; human, in vivo, iv, 500 mg, FMGX only 500 mg BID IV, D1, Cohort 1, n = 16, read-out: MGX AUC(0-inf), least squares geometric mean) was 460 µg·h/mL and the AUC(0-t) ([4]; human, in vivo, iv, 500 mg, FMGX only 500 mg BID IV, D1, Cohort 1, n = 16, read-out: MGX AUC(0-t), least squares geometric mean) was 429 µg·h/mL. For the same compound, the Cmax ([4]; human, in vivo, iv, 500 mg, FMGX only 500 mg BID IV, D1, Cohort 1, n = 16, read-out: MGX Cmax, least squares geometric mean) was 6940 ng/mL, the clearance ([4]; human, in vivo, iv, 500 mg, MGX CL) was 27.7 mL/min and the half-life ([4]; human, in vivo, iv, 500 mg, MGX t1/2) was 77.3 h. The “MGX CL” value ([4]; human, in vivo, iv, 1000 mg) was 1,862 (18.5) mL/h, the AUC(0-inf) ([4]; human, in vivo, iv, 1000 mg, FMGX only 1000 mg BID IV, D1, Cohort 2, n = 17, geometric mean (geometric %CV), read-out: MGX AUC(0-inf)) was 822 µg·h/mL and the AUC(0-t) ([4]; human, in vivo, iv, 1000 mg, FMGX only 1000 mg BID IV, D1, Cohort 2, n = 17, geometric mean (geometric %CV), read-out: MGX AUC(0-t)) was 772 µg·h/mL. It also gave a Cmax ([4]; human, in vivo, iv, 1000 mg, FMGX only 1000 mg BID IV, D1, Cohort 2, n = 17, geometric mean (geometric %CV), read-out: MGX Cmax) of 13900 ng/mL, an AUC(0-inf) ([4]; human, in vivo, iv, 1000 mg, FMGX only 1,000 mg BID IV, D1, Cohort 2, n = 17, read-out: MGX AUC(0-inf), least squares geometric mean) of 822 µg·h/mL and an AUC(0-t) ([4]; human, in vivo, iv, 1000 mg, FMGX only 1,000 mg BID IV, D1, Cohort 2, n = 17, read-out: MGX AUC(0-t), least squares geometric mean) of 772 µg·h/mL. It also gave a Cmax ([4]; human, in vivo, iv, 1000 mg, FMGX only 1,000 mg BID IV, D1, Cohort 2, n = 17, read-out: MGX Cmax, least squares geometric mean) of 13900 ng/mL, a half-life ([4]; human, in vivo, iv, 1000 mg, MGX t1/2) of 70.7 h and a Tmax ([4]; human, in vivo, FMGX 500 mg BID IV D18 + ITR 200 mg QD PO D15-30, Cohort 1, n = 16) of 12 h. The Tmax ([4]; human, in vivo, FMGX only 500 mg BID IV, D1, Cohort 1, n = 16) was 12 h, the Tmax ([4]; human, in vivo, FMGX only 1000 mg BID IV, D1, Cohort 2, n = 17) was 12 h and the “Reversible inhibition of CYP2C9” value (CYP2C9) was “observed”. For the same compound, the “Time-dependent inhibition of CYP2C9” value (CYP2C9) was “no time-dependent inhibition”, the “Reversible inhibition of CYP3A4” value (CYP3A4) was “observed” and the “Time-dependent inhibition of CYP3A4” value (CYP3A4) was “weak time-dependent inhibition”. The “Reversible inhibition of CYP2D6” value (CYP2D6) was “observed” and the “Time-dependent inhibition of CYP2D6” value (CYP2D6) was “no time-dependent inhibition”.

Source: publication PMC11620482, “Phase 1 drug-drug interaction study to assess the effect of CYP3A4 inhibition and pan-CYP induction on the pharmacokinetics and safety of fosmanogepix in healthy participants” (Antimicrobial Agents and Chemotherapy, 2024)
